This passage reports IC50 results from BindingDB's records for doi:10.1016/j.ejmech.2014.09.012 (Shandong University, 2014).

One may read the IC50 as the concentration that gives 50% inhibition. Lower therefore signals greater potency.

This experiment is described as follows: Inhibition of HIV-1 isolate YTA48P HIV-1 gp120.

For the compound `CC1(C)CC(NC(=O)C(=O)Nc2ccc(Cl)cc2)CC(C)(C)N1` [N-(4-chlorophenyl)-N'-(2,2,6,6-tetramethylpiperidin-4-yl)-oxalamide], the midpoint of inhibition, the IC50, lay at 610 nM.
